Test results taken from PubChem BioAssay (NCI).
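Cultured in 96-well plates, cells were exposed to test compound for 48 hours across five concentrations. TGI is the concentration that stops growth completely.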

Experiments:
Experiment in all cases: DTP human tumour cell line panel, 48 h
NCI-H226 lung = tested on: NCI-H226 lung
HL-60(TB) leukemia = tested on: HL-60(TB) leukemia
A498 renal = tested on: A498 renal
SN12C renal = tested on: SN12C renal
U251 CNS = tested on: U251 CNS
UO-31 renal = tested on: UO-31 renal
NCI-H522 lung = tested on: NCI-H522 lung
MDA-MB-435 = tested on: MDA-MB-435
RPMI-8226 leukemia = tested on: RPMI-8226 leukemia
SNB-19 CNS = tested on: SNB-19 CNS
MDA-N = tested on: MDA-N
LOX IMVI melanoma = tested on: LOX IMVI melanoma
COLO 205 colon = tested on: COLO 205 colon
SK-MEL-5 melanoma = tested on: SK-MEL-5 melanoma
MDA-MB-231 breast = tested on: MDA-MB-231 breast

SMILES | TGI (NCI-H226 lung) [µM] | TGI (HL-60(TB) leukemia) [µM] | TGI (A498 renal) [µM] | TGI (SN12C renal) [µM] | TGI (U251 CNS) [µM] | TGI (UO-31 renal) [µM] | TGI (NCI-H522 lung) [µM] | TGI (MDA-MB-435) [µM] | TGI (RPMI-8226 leukemia) [µM] | TGI (SNB-19 CNS) [µM] | TGI (MDA-N) [µM] | TGI (LOX IMVI melanoma) [µM] | TGI (COLO 205 colon) [µM] | TGI (SK-MEL-5 melanoma) [µM] | TGI (MDA-MB-231 breast) [µM]
CC1=C(C)SC(=C2Sc3c(n(C)c(=O)[nH]c3=O)S2)S1 | > 100 | > 100 | > 100 | > 100 | > 100 | > 100 | > 100 | > 100 | > 100 | > 100 | > 100 | > 100 | > 100 | > 100 | > 100
NC(=S)SCCC(=O)O | > 100 | > 100 | > 100 | > 100 | > 100 | > 100 | > 100 | > 100 | > 100 | > 100 | > 100 | > 100 | > 100 | > 100 | > 100
COc1ccc(C)c2c1N[C@](C)([C@]1(C)Nc3c(OC)ccc(C)c3C1=O)C2=O | > 100 | – | > 100 | > 100 | > 100 | > 100 | > 100 | > 100 | > 100 | > 100 | > 100 | > 100 | > 100 | > 100 | > 100
COC(C)(C)C(O)C(O)C[C@H](C)C1CC=C2C1(C)CCC1[C@@]3(C)CCC(OC(C)=O)C(C)(C)C3CC(OC3OC(COC(C)=O)C(O)C(O)C3O)[C@@]21C (stereo partly drawn) | > 10 | 5.54 | 8.68 | > 10 | > 10 | 2.07 | 8.7 | > 10 | 5.14 | > 10 | > 10 | 6.55 | 3.89 | 4.38 | 9.73
CCCCCCCC1c2cc3[nH]c(cc4nc(cc5[nH]c(cc(n2)[C@@]1(C)CC(=O)N(C)C)c(C)c5CCC(=O)O)C(CCC(=O)O)=C4C)cc3C (stereo partly drawn) | – | 45.8 | 87.2 | 76.1 | 32.9 | 32.5 | 37.8 | 92.5 | 47.7 | 36.9 | > 100 | 33.3 | 32.2 | 51 | 33.7
CC1CCCOc2ccc(cc2)C=Nc2ccc(cc2)CCc2ccc(cc2)N=Cc2ccc(cc2)OCCC1 (stereo not drawn) | > 100 | – | > 100 | > 100 | > 100 | > 100 | > 100 | > 100 | > 100 | > 100 | > 100 | > 100 | > 100 | > 100 | > 100
[N-]=[N+]=NC1(N=[N+]=[N-])C(=O)NN=C(c2ccccc2)C1=O (stereo not drawn) | > 100 | > 100 | > 100 | > 100 | > 100 | > 100 | > 100 | 42.6 | > 100 | – | 61.3 | 92.9 | > 100 | – | > 100
O=C1CCC(=O)N1CNc1ccc2c(c1)Sc1ccccc1O2 | 63.1 | 54.8 | > 100 | 76.1 | > 100 | 91.5 | 53.6 | > 100 | > 100 | > 100 | > 100 | 68.9 | 35.3 | 70.1 | > 100
CCOC(=O)Cn1c(=O)c2nc(SC)sc2n(-c2ccc(C)cc2)c1=S | 69.6 | > 100 | > 100 | > 100 | 71.6 | > 100 | > 100 | > 100 | > 100 | 54.1 | > 100 | > 100 | > 100 | > 100 | > 100
O=C1c2ccccc2C(=O)c2c(OCC3CO3)ccc(OCC3CO3)c21 (stereo not drawn) | 35.9 | 2.18 | > 47.5 | 4.74 | 12.1 | 10.4 | 13 | 7.61 | 19.8 | 27.2 | 23.8 | 0.515 | 9.34 | 15.5 | > 34
C[C@]12CC[C@@H]3c4ccc(OC(=O)c5ccccc5)cc4CC[C@H]3[C@@H]1CCC2OC(=O)c1cccc2c(=O)c3ccccc3[nH]c12 (stereo partly drawn) | 39.6 | > 100 | 64 | 30.1 | 29.9 | 68.6 | 45.2 | 15.4 | > 100 | 80.6 | 27.8 | 31 | 33.1 | 57.9 | 40.8
O=S(=O)(O)c1cc(S(=O)(=O)O)c2c(N=Nc3cccc4ccccc34)c(O)ccc2c1 | > 100 | > 100 | > 100 | > 100 | > 100 | > 100 | > 100 | > 100 | > 100 | > 100 | > 100 | > 100 | > 100 | > 100 | > 100
O=C(O)c1ccc(Nc2ccnc3cc(Cl)ccc23)cc1O | > 100 | > 100 | > 100 | > 100 | > 100 | > 100 | > 100 | > 100 | > 100 | > 100 | > 100 | > 100 | > 100 | > 100 | > 100
CNC(=O)Nc1cc2c3c(c1)CCCN3CCC2 | > 10 | – | > 10 | > 10 | > 10 | – | > 10 | > 10 | > 10 | > 10 | > 10 | > 10 | > 10 | > 10 | > 10
CN(C)c1ccc(N=Nc2cccc3ccoc23)cc1 | > 100 | > 74.7 | > 100 | > 100 | > 100 | > 74.3 | > 100 | > 100 | > 100 | > 100 | > 100 | > 100 | > 100 | > 100 | > 100
